Reference: patent publication US20260258378A1, “GLYCOSYLTRANSFERASE ENGINEERING FOR CHEMOENZYMATIC TOTAL SYNTHESIS OF GANGLIOSIDES” (priority 2022, published 2026)

Experiments:
Format in all cases: biochemical, Campylobacter jejuni
MBP-CjCgtBΔ30-His6 [1] = assay: Effects of divalent metal cations, EDTA and DTT on enzyme activity; conditions: pH 7.5, Tris-HCl buffer (100 mM); DTT 10 mM
Method: (§1) The enzymatic assays were carried out in duplicate at 37° C. for 10 minutes in a reaction mixture (10 μL) containing the donor substrate (1.5 mM, UDP-GalNAc for MBP-Δ15CjCgtA-His6 and UDP-Gal for MBP-CjCgtBΔ30-His6), an acceptor substrate (1 mM, GM3βNHCbz for MBP-Δ15CjCgtA-His6 and GM2βNHCbz for MBP-CjCgtBΔ30-His6), Tris-HCl buffer (100 mM, pH 7.5), a metal cation (10 mM, MgCl2 for MBP-Δ15CjCgtA-His6 and MnCl2 for MBP-CjCgtBΔ30-His6), and the enzyme (0.32 μM for MBP-Δ15CjCgtA-His6 and 4 μM for MBP-CjCgtBΔ30-His6). The reactions were stopped by adding 10 μL of ice-cold methanol followed by incubation of the mixture on ice for 20 minutes and centrifugation at 16200 g for 5 minutes. The supernatant (about 20 μL) was transferred into another tube containing ddH2O (40 μL) and the resulting mixture was analyzed by liquid chromatography-mass spectrometry (LC-MS) (SHIMADZU LCMS-2020 system with electrospray ionization) for confirming the product and ultra-high-performance liquid chromatography (UHPLC) (monitored at 215 nm on an Agilent Infinity 1290 II HPLC system equipped with 1260 Infinity II Diode Array Detector WR) for reaction yield determination. The column used for the UHPLC analysis was Dionex™ CarboPac™ PA-100 (1.8 μm particle, 4×250 mm, Thermo Scientific, CA) for both glycosyltransferases. A gradient flow (100% water to 70% water/30% 1 M NaCl in 16 min) was used for analyzing the reactions catalyzed by MBP-Δ15CjCgtA-His6 and a different gradient flow (100% water to 75% water/[…] in 16 min) was used for analyzing MBP-CjCgtBΔ30-His6-catalyzed reactions. The flow rate was 0.75 mL min^−1.
(§2) The effect of various metal ions, the chelating reagent EDTA, and the reducing reagent DTT on the enzyme activity of MBP-Δ15CjCgtA-His6 and MBP-CjCgtBΔ30-His6 were examined at pH 7.5 in a Tris-HCl buffer (100 mM). Reactions without metal ions were used as controls.

MBP-Δ15CjCgtA-His6 [2] = assay: as above; conditions: pH 7.5, Tris-HCl buffer (100 mM); DTT 10 mM
Method: as §1, §2

MBP-Δ15CjCgtA-His6 [3] = assay: Effects of detergents on MBP-Δ15CjCgtA-His6-catalyzed OPME formation of GM2βSph; conditions: glycosphingosine acceptor, HRMS; sodium cholate 8-10 mM; Triton X-100 10 mM
Method: Assays were carried out at 30° C. for 12 hours in a total volume of 10 μL in Tris-HCl buffer (100 mM, pH 7.5) containing a GM3βSph (10 mM), GalNAc (15 mM), ATP (15 mM), UTP (15 mM), MgCl2 (20 mM), BLNahK (2 μg), PmGlmU (2 μg), MBP-Δ15CjCgtA-His6 (3 μg), PmPpA (1 μg), and various concentrations (0, 1, 2, 4, 5, 8, 10, 15, 18 mM) of sodium cholate or Triton X-100 (1, 5, 10, 15 mM). Reactions were quenched by addition of 10 μL of pre-chilled ethanol and the mixtures were incubated at 0° C. for 30 min, centrifuged, and the supernatant were analyzed by high resolution mass spectrometry (HRMS).
(§3) Glycosphingosines are much weaker acceptor substrates than the corresponding glycans for both CjCgtA and CjCgtB. This property made it prohibitive for synthesizing GM2βSph and GM1βSph in large-scales using the OPME strategy. […] The effects of these detergents in influencing the activities of both MBP-Δ15CjCgtA-His6 and MBP-CjCgtBΔ30-His6 in using glycosphingosine acceptor substrates and the reactions were analyzed by high-resolution mass spectrometry (HRMS).

MBP-CjCgtBΔ30-His6 [4] = assay: Effects of detergents on MBP-CjCgtBΔ30-His6 with glycosphingosine acceptor substrates; conditions: HRMS, sodium cholate 8-10 mM, Triton X-100 10 mM
Method: as §3

Compound	effect on the enzyme activity of MBP-CjCgtBΔ30-His6 (MBP-CjCgtBΔ30-His6 [1])	effect on the enzyme activity of MBP-Δ15CjCgtA-His6 (MBP-Δ15CjCgtA-His6 [2])	effect of detergent on reaction yield / enzyme activity (MBP-Δ15CjCgtA-His6 [3])	effect of detergent on reaction yield / enzyme activity (MBP-CjCgtBΔ30-His6 [4])
O[C@H](CS)[C@H](O)CS (racemic) [dithiothreitol]	improved the activity	deactivated	–	–
[Ca+2] [Ca^2+]	not	suitable	–	–
[Mg+2] [Mg^2+]	less effective	equally effective	–	–
[Mn+2] [Mn^2+]	preferred cation	–	–	–
C[C@H](CCC(=O)[O-])[C@H]1CC[C@H]2[C@@H]3[C@H](O)C[C@@H]4C[C@H](O)CC[C@]4(C)[C@H]3C[C@H](O)[C@]12C.[Na+] [sodium cholate]	–	–	greatly enhanced	greatly enhanced
Triton X-100	–	–	improved	improved
